{"source": "paper PMC7926623", "about": "(Marine Drugs, 2021)", "origin": "cited, not measured here", "tested_on": "rα6/α3β2β3 nAChR", "details": "cited from earlier work", "data": [{"substance": "α-Conotoxin TxIB", "values": [{"measurement": "IC50", "result": 28.4, "unit": "nM"}]}]}
